Where two headings read alike, the source gives them in different places. Marks after values point to notes of the source that are not given here.
Tests used:
HepaRG = settings: HepaRG; ref Josse et al., 2012; cited from earlier work
HepG2 = settings: HepG2, cited from earlier work
[1] = ref IARC (2018); cited from earlier work
Human lymphocytes = settings: Human lymphocytes, cited from earlier work
Huh6 cells = tested on: Huh6 cells
Experimental: All experiments were performed in duplicate.
3.8–4.0 × 10^5 cells per well were seeded into 6‐well plates with 3 mL of RPMI (4% FBS) for 12 hr, then dilutions of stock solutions of the diagnostic mutagens were added for different time periods (4, 24, and 48 hr). In each experimental series solvent controls were included. Subsequently, the cells were washed twice with 3.0 mL medium. […] Finally, the cells were washed and trypsinised. Afterwards the cells were washed twice with 8.0 mL RPMI and collected on slides by cytocentrifugation (600 rpm, 5 min). The slides were air dried, fixed, and stained with DiffQuick according to the instructions of the manufacturer. For each experimental point, two cultures were tested per dose. From each culture ≥1,000 BN cells were evaluated under 400‐fold magnification (Nikon Photophot‐FXA, Tokyo, Japan). At least 2,000 binucleated cells were analyzed per dose for the determination of the different nuclear anomalies (MN, NBuds, and NBs).
The experiments were performed as described in the previous chapter. The cells were exposed only to one dose of the different mutagens and were cultivated after the seeding in 6‐well plates which contained 4% or 10% FBS in RPMI, respectively.
Data were evaluated by generalized linear model with Poisson counts. Chi‐square tests for overdispersion were applied. […] P values ≤0.05 were considered statistically significant.
^150-60 000 cells were seeded in 6 well plates with 3 ml RPMI (4% FBS), subsequently different solutions of the test compound (dissolved in medium) were added. After treatment for different time periods, the cells was washed and processed as described in the Material and Method section. […] From each culture 1000 binoculated cells were evaluated. BN-MN – number of micronucleated cells; MN - total number of micronuclei; CBPI – cytokinesis-block proliferation index
^1The experiments were conducted essentially as described in the footnote of Table S1A-I. *p≤0.05

[2] = 10% FBS, 24 hr treatment, 10 µg/ml

## COS(C)(=O)=O [MMS, Methyl methanesulfonate]
HepaRG
  Lowest effective concentration (LOEC) in micronucleus experiments: 9.9 (Josse et al., 2012) μg/mL
  MN formation with the longer exposure time, treatment for 1 or 7 days (in words): no such effects
HepG2; ref Natarajan and Darroudi (1991)
  MN induction after 28 hr compared with 1 hr exposure (in words): less pronounced effect
HepG2; ref Valentin‐Severin et al., 2003
  Lowest effective concentration (LOEC) in micronucleus experiments: 11.0 (Valentin‐Severin et al., 2003) μg/mL
[1]
  IARC classification: Methylation of DNA bases; causes gene mutations and CA; IARC: Group 2A
Human lymphocytes; ref Andreoli et al., 1999
  Lowest effective concentration (LOEC) in micronucleus experiments: 15.4 µg/mL
Human lymphocytes; ref Fowler et al., 2014
  Lowest effective concentration (LOEC) in micronucleus experiments: 51.0 µg/mL
Huh6 cells; 4% FBS
  MN effects after 24 hr (or longer) compared with 4 hr treatment (in words): similar
Huh6 cells; 4% FBS, 4hrs, 6 µg/ml
  BN-MN (number of micronucleated cells): 20.5 ± 3.5 ‰
  Bridges: 0.5 ± 0.7 ‰
  Buds: 20.5 ± 3.5 ‰
  CBPI: 1.9 ± 0.1
  MN (total number of micronuclei): 21.0 ± 4.2 ‰
Huh6 cells; 4% FBS, 4hrs, 10 µg/ml
  BN-MN (number of micronucleated cells): 32.5 ± 3.5* ‰
  Bridges: 3.5 ± 0.7 ‰
  Buds: 37.0 ± 4.2* ‰
  CBPI: 1.7 ± 0.1
  MN (total number of micronuclei): 39.5 ± 0.7* ‰
Huh6 cells; 4% FBS, 4hrs, 40 µg/ml
  BN-MN (number of micronucleated cells): 40.0 ± 7.1* ‰
  Bridges: 3.5 ± 2.1 ‰
  Buds: 42.0 ± 17.0* ‰
  CBPI: 1.5 ± 0.1
  MN (total number of micronuclei): 50.5 ± 7.8 ‰
Huh6 cells; 4% FBS, 24hrs, 0.4 µg/ml
  BN-MN (number of micronucleated cells): 16.5 ± 0.7 ‰
  Bridges: 0.5 ± 0.7 ‰
  Buds: 9.5 ± 0.7 ‰
  CBPI: 1.7 ± 0.0
  MN (total number of micronuclei): 16.5 ± 0.7 ‰
Huh6 cells; 4% FBS, 24hrs, 2 µg/ml
  BN-MN (number of micronucleated cells): 21.5 ± 2.1 ‰
  Bridges: 3.0 ± 0.0 ‰
  Buds: 17.5 ± 0.7 ‰
  CBPI: 1.7 ± 0.0
  MN (total number of micronuclei): 23.5 ± 2.1 ‰
Huh6 cells; 4% FBS, 24hrs, 10 µg/ml
  BN-MN (number of micronucleated cells): 29.5 ± 2.1* ‰
  Bridges: 8.0 ± 1.4 ‰
  Buds: 27.0 ± 1.4* ‰
  CBPI: 1.6 ± 0.0
  MN (total number of micronuclei): 31.0 ± 2.8* ‰
Huh6 cells; 4% FBS, 48 hr
  Change of MN rates after 48 hr treatment (in words): slight decrease
Huh6 cells; 4% FBS, 48hrs, 0.4 µg/ml
  BN-MN (number of micronucleated cells): 18.0 ± 1.4 ‰
  Bridges: 0.5 ± 0.7 ‰
  Buds: 19.0 ± 1.4 ‰
  CBPI: 1.8 ± 0.0
  MN (total number of micronuclei): 20.0 ± 1.4 ‰
Huh6 cells; 4% FBS, 48hrs, 2 µg/ml
  BN-MN (number of micronucleated cells): 20.5 ± 0.7 ‰
  Bridges: 2.5 ± 0.7 ‰
  Buds: 19.5 ± 0.7 ‰
  CBPI: 1.9 ± 0.0
  MN (total number of micronuclei): 23.5 ± 0.7 ‰
Huh6 cells; 4% FBS, 48hrs, 10 µg/ml
  BN-MN (number of micronucleated cells): 24.0 ± 2.8 ‰
  Bridges: 0.5 ± 0.7 ‰
  Buds: 27.0 ± 1.4 ‰
  CBPI: 1.7 ± 0.0
  MN (total number of micronuclei): 25.5 ± 3.5 ‰
Huh6 cells; [2]
  BN-MN (number of micronucleated cells): 27.5 ± 2.1*
  Bridges: 0.0 ± 0.0
  Buds: 20.0 ± 2.8
  CBPI: 1.8 ± 0.0
  MN (total number of micronuclei): 30.0 ± 1.4*
Huh6 cells; 24 hr treatment
  MN frequencies with 10% serum compared with 4% serum (in words): not increased
Huh6 cells; Huh6
  Lowest effective concentration (LOEC) in micronucleus experiments: 10.0 µg/mL

From paper PMC6492180, “Cytome micronucleus assays with a metabolically competent human derived liver cell line (Huh6): A promising approach for routine testing of chemicals?” (Environmental and Molecular Mutagenesis, 2018)
